In patent publication US20240409556A1, “BENZOPIPERAZINE AND RELATED ANALOGS FOR INHIBITING YAP/TAZ-TEAD” (Springworks Therapeutics, Inc., priority 2023, published 2024):

Tested on: YAP/TAZ-TEAD transcription
Test: Reporter gene assay for measuring the inhibition of YAP/TAZ-TEAD transcription (TEAD-responsive element luciferase reporter in Hek293T cells)
Type: cell-based
Settings: 24 hours incubation
Procedure: Example 56: Activity of Compounds of the Disclosure in a Reporter Gene Assay for Measuring the Inhibition of YAP/TAZ-TEAD Transcription
Hek293T cells were cultured in DMEM supplemented with 10% fetal bovine serum, Sodium pyruvate, Sodium bicarbonate, L-glutamine. The cells were harvested and transiently transfected with TEAD-responsive element luciferase reporter. Transfected cells were plated in 384-well plate containing pre-diluted compounds. After 24 hours incubation at 37° C./5% CO2, assay plates were cooled to room temperature and levelled to an equal volume per well, prior to the addition of 25 uL luciferase substrate SteadyLite (Perkin Elmer)/well. The plate was shaken for 10 min at 600 rpm, centrifuged for 1 min at 500 rpm and measured with an Envision reader (PerkinElmer). The amount of relative light units produced by the TEAD reporter was used to calculate the percentage of inhibition.
The percent of reporter inhibition was calculated in the presence of a positive control inhibitor (100% inhibition) versus a condition with the presence of the vehicle basal activity of the reporter (0% inhibition). The ability of a test compound to inhibit this activity was determined as: Percentage inhibition=[[…]((RLU determined in the presence of vehicle−RLU determined for sample with test compound present) divided by (RLU determined in the presence of vehicle−RLU determined for sample with positive control inhibitor))]*100.
The activities of example compounds tested are depicted in Table 3. The activity ranges A, B and C refer to IC50 values in the reporter gene assay as follows: “A”: IC50<1 μM; “B”: 1 μM≤IC50≤10 μM and “C”: IC50>10 μM; NT=not tested.

| IC50 (Homo sapiens, HEK-293T, 24 h) [nM] | IC50 [nM] | Structure (SMILES) |
| --- | --- | --- |
| < 1000 |  | CC(=O)NC[C@H]1CN(c2ccc(C(F)(F)F)cc2)c2cccnc2N1 [39-En1, (S)-N-((1-(4-(trifluoromethyl)phenyl)-1,2,3,4-tetrahydropyrido[2,3-b]pyrazin-3-yl)methyl)acetamide] |
| < 1000 |  | CNC(=O)O[C@H]1C[C@@H]2CN(c3ccc(C(F)(F)F)cc3)c3cccnc3N2C1 [55-En1, (6aR,8S)-5-(4-(trifluoromethyl)phenyl)-5,6,6a,7,8,9-hexahydropyrido[3,2-e]pyrrolo[1,2-a]pyrazin-8-yl methylcarbamate] |
| < 1000 |  | C[C@@H](O)C(=O)N[C@@H]1C[C@@H]2CN(c3ccc(C(F)(F)F)cc3)c3cccnc3N2C1 [109-En1, (R)-2-hydroxy-N-((6aR,8R)-5-(4-(trifluoromethyl)phenyl)-5,6,6a,7,8,9-hexahydropyrido[3,2-e]pyrrolo[1,2-a]pyrazin-8-yl)propanamide] |
|  | 1000 to 10000 | CC1(C(=O)O)CCN2c3ccccc3N(c3ccc(C(F)(F)F)cc3)CC2C1 [115-D1, (6aS,8S)— or (6aR,8S)— or (6aR,8R)— or (6aS,8R)-8-methyl-5-(4-(trifluoromethyl)phenyl)-6,6a,7,8,9,10-hexahydro-5H-pyrido[1,2-a]quinoxaline-8-carboxylic acid] |
| 1000 to 10000 |  | FC(F)(F)c1ccc(N2CC3CC(c4nnn[nH]4)CCN3c3ccccc32)cc1 (stereo not drawn) [121-D1, 8-(1H-tetrazol-5-yl)-5-(4-(trifluoromethyl)phenyl)-6,6a,7,8,9,10-hexahydro-5H-pyrido[1,2-a]quinoxaline] |
|  | < 1000 | O=C(O)C1(F)CCN2c3ccccc3N(c3ccc(C(F)(F)F)cc3)CC2C1 [123-D2, (6aS,8S)- or (6aR,8S)- or (6aR,8R)- or (6aS,8R)-8-fluoro-5-(4-(trifluoromethyl)phenyl)-6,6a,7,8,9,10-hexahydro-5H-pyrido[1,2-a]quinoxaline-8-carboxylic acid] |
|  | < 1000 | O=C(O)C1(F)CCN2c3ccccc3N(c3ccc(C(F)(F)F)cc3)CC2C1 [123-D3, (6aS,8S)- or (6aR,8S)- or (6aR,8R)- or (6aS,8R)-8-fluoro-5-(4-(trifluoromethyl)phenyl)-6,6a,7,8,9,10-hexahydro-5H-pyrido[1,2-a]quinoxaline-8-carboxylic acid] |
|  | < 1000 | O=C(O)C1(F)CCN2c3ccccc3N(c3ccc(C(F)(F)F)cc3)CC2C1 [123-D4, (6aS,8S)- or (6aR,8S)- or (6aR,8R)- or (6aS,8R)-8-fluoro-5-(4-(trifluoromethyl)phenyl)-6,6a,7,8,9,10-hexahydro-5H-pyrido[1,2-a]quinoxaline-8-carboxylic acid] |
| < 1000 |  | O=C(O)C1(O)CCN2c3ccccc3N(c3ccc(C(F)(F)F)cc3)CC2C1 (stereo not drawn) [126A, (cis)- or (trans)-8-hydroxy-5-(4-(trifluoromethyl)phenyl)-6,6a,7,8,9,10-hexahydro-5H-pyrido[1,2-a]quinoxaline-8-carboxylic acid] |
| > 10000 |  | CC(=O)NCC1CN(c2ccc(C(F)(F)F)cc2)c2ccccc2N1CCO (stereo not drawn) [compound 2, N-((1-(2-hydroxyethyl)-4-(4-(trifluoromethyl)phenyl)-1,2,3,4-tetrahydroquinoxalin-2-yl)methyl)acetamide] |
| < 1000 |  | C=CC(=O)NCC1CN(c2ccc(C(F)(F)F)cc2)c2ccccc2N1CCCO (stereo not drawn) [compound 5, N-((1-(3-hydroxypropyl)-4-(4-(trifluoromethyl)phenyl)-1,2,3,4-tetrahydroquinoxalin-2-yl)methyl)acrylamide] |
| > 10000 |  | C=CC(=O)NCC1CN(c2ccc(C(F)(F)F)cc2)c2ccccc2N1CCC(=O)O (stereo not drawn) [compound 7, 3-(2-(acrylamidomethyl)-4-(4-(trifluoromethyl)phenyl)-3,4-dihydroquinoxalin-1(2H)-yl)propanoic acid] |
| < 1000 |  | C=CC(=O)NCC1CN(c2ccc(C(F)(F)F)cc2)c2ccccc2N1CCC(=O)NC (stereo not drawn) [compound 9, N-((1-(3-(methylamino)-3-oxopropyl)-4-(4-(trifluoromethyl)phenyl)-1,2,3,4-tetrahydroquinoxalin-2-yl)methyl)acrylamide] |

The remaining lines, values behind:

| Structure (SMILES) | IC50 (Homo sapiens, HEK-293T, 24 h) [nM] | IC50 [nM] |
| --- | --- | --- |
| CC(=O)NC[C@@H]1CN(c2ccc(C(F)(F)F)cc2)c2cccnc2N1 [39-En2, (R)-N-((1-(4-(trifluoromethyl)phenyl)-1,2,3,4-tetrahydropyrido[2,3-b]pyrazin-3-yl)methyl)acetamide] | < 1000 |  |
| CC(=O)N1CCN2c3ncccc3N(c3ccc(C(F)(F)F)cn3)CC2C1 (stereo not drawn) [53-En2, 1-(5-(5-(trifluoromethyl)pyridin-2-yl)-5,6,6a,7,9,10-hexahydro-8H-pyrazino[1,2-a]pyrido[3,2-e]pyrazin-8-yl)ethan-1-one] |  | > 10000 |
| O=C(O)C1CCN2c3ccccc3N(c3ccc(C(F)(F)F)cc3)CC2C1 (stereo not drawn) [65A, (cis)- or (trans)-5-(4-(trifluoromethyl)phenyl)-6,6a,7,8,9,10-hexahydro-5H-pyrido[1,2-a]quinoxaline-8-carboxylic acid] | < 1000 |  |
| CC(=O)N[C@@H]1C[C@@H]2CN(c3ccc(C(F)(F)F)cc3)c3cccnc3N2C1 [70-D1, N-((6aR,8R)-5-(4-(trifluoromethyl)phenyl)-5,6,6a,7,8,9-hexahydropyrido[3,2-e]pyrrolo[1,2-a]pyrazin-8-yl)acetamide] | < 1000 |  |
| CC(=O)N[C@H]1C[C@@H]2CN(c3ccc(C(F)(F)F)cc3)c3cccnc3N2C1 [70-D2, N-((6aR,8S)-5-(4-(trifluoromethyl)phenyl)-5,6,6a,7,8,9-hexahydropyrido[3,2-e]pyrrolo[1,2-a]pyrazin-8-yl)acetamide] | < 1000 |  |
| O=C(O)C1CCN2c3ncccc3N(c3ccc(C(F)(F)F)cc3)CC2C1 [96A-En1, (6aS,8S)- or (6aR,8S)- or (6aR,8R)- or (6aS,8R)-5-(4-(trifluoromethyl)phenyl)-6,6a,7,8,9,10-hexahydro-5H-dipyrido[1,2-a:3′,2′-e]pyrazine-8-carboxylic acid] | < 1000 |  |
| O=C(O)C1CCN2c3ncccc3N(c3ccc(C(F)(F)F)cc3)CC2C1 [96A-En2, (6aS,8S)- or (6aR,8S)- or (6aR,8R)- or (6aS,8R)-5-(4-(trifluoromethyl)phenyl)-6,6a,7,8,9,10-hexahydro-5H-dipyrido[1,2-a:3′,2′-e]pyrazine-8-carboxylic acid] |  | < 1000 |
| O=C(O)C1CCN2c3ncc(Cl)cc3N(c3ccc(C(F)(F)F)cc3)CC2C1 (stereo not drawn) [100A, (cis)- or (trans)-3-chloro-5-(4-(trifluoromethyl)phenyl)-6,6a,7,8,9,10-hexahydro-5H-dipyrido[1,2-a:3′,2′-e]pyrazine-8-carboxylic acid] | < 1000 |  |
| Cc1ccc2c(n1)N1CCC(C(=O)O)CC1CN2c1ccc(C(F)(F)F)cc1 [101-D1, (6aS,8S)— or (6aR,8S)— or (6aR,8R)— or (6aS,8R)-2-methyl-5-(4-(trifluoromethyl)phenyl)-6,6a,7,8,9,10-hexahydro-5H-dipyrido[1,2-a:3′,2′-e]pyrazine-8-carboxylic acid] | < 1000 |  |
| Cc1ccc2c(n1)N1CCC(C(=O)O)CC1CN2c1ccc(C(F)(F)F)cc1 [101-D3, (6aS,8S)— or (6aR,8S)— or (6aR,8R)— or (6aS,8R)-2-methyl-5-(4-(trifluoromethyl)phenyl)-6,6a,7,8,9,10-hexahydro-5H-dipyrido[1,2-a:3′,2′-e]pyrazine-8-carboxylic acid] |  | < 1000 |
| CC1(C(=O)O)CCN2c3ccccc3N(c3ccc(C(F)(F)F)cc3)CC2C1 [115-D2, (6aS,8S)— or (6aR,8S)— or (6aR,8R)— or (6aS,8R)-8-methyl-5-(4-(trifluoromethyl)phenyl)-6,6a,7,8,9,10-hexahydro-5H-pyrido[1,2-a]quinoxaline-8-carboxylic acid] |  | < 1000 |
| O=C(NO)C1CCN2c3ccccc3N(c3ccc(C(F)(F)F)cc3)CC2C1 [116B-En1, (6aS,8S)- or (6aR,8S)- or (6aR,8R)- or (6aS,8R)-N-hydroxy-5-(4-(trifluoromethyl)phenyl)-6,6a,7,8,9,10-hexahydro-5H-pyrido[1,2-a]quinoxaline-8-carboxamide] | < 1000 |  |
| NC(=O)C1CCN2c3ccccc3N(c3ccc(C(F)(F)F)cc3)CC2C1 (stereo not drawn) [117B-En1, (cis)- or (trans)-5-(4-(trifluoromethyl)phenyl)-6,6a,7,8,9,10-hexahydro-5H-pyrido[1,2-a]quinoxaline-8-carboxamide] | < 1000 |  |
| C=CC(=O)NCC1CN(c2ccc(C(F)(F)F)cc2)c2ccccc2N1CCO (stereo not drawn) [compound 1, N-((1-(2-hydroxyethyl)-4-(4-(trifluoromethyl)phenyl)-1,2,3,4-tetrahydroquinoxalin-2-yl)methyl)acrylamide] | < 1000 |  |
| CC(=O)NCC1CN(c2ccc(C(F)(F)F)cc2)c2ccccc2N1CC#N (stereo not drawn) [compound 4, N-((1-(cyanomethyl)-4-(4-(trifluoromethyl)phenyl)-1,2,3,4-tetrahydroquinoxalin-2-yl)methyl)acetamide] | 1000 to 10000 |  |
| CC(=O)NCC1CN(c2ccc(C(F)(F)F)cc2)c2ccccc2N1CCCO (stereo not drawn) [compound 6, N-((1-(3-hydroxypropyl)-4-(4-(trifluoromethyl)phenyl)-1,2,3,4-tetrahydroquinoxalin-2-yl)methyl)acetamide] | > 10000 |  |
| CC(=O)NCC1CN(c2ccc(C(F)(F)F)cc2)c2ccccc2N1CCC(=O)O (stereo not drawn) [compound 8, 3-(2-(acetamidomethyl)-4-(4-(trifluoromethyl)phenyl)-3,4-dihydroquinoxalin-1(2H)-yl)propanoic acid] | > 10000 |  |
